# Data taken from PMC6934184, “Selective DNA-PKcs inhibition extends the therapeutic index of localized radiotherapy and chemotherapy” (The Journal of Clinical Investigation, 2019).
# Molecular target: T1, DYRK1B (Homo sapiens, UniProt Q9Y463)
# T1 construct: purchased Thermo Fisher Scientific (Life Technologies) SelectScreen
# Assay: SelectScreen Z'LYTE
# Format: biochemical
# Procedure, shortened: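 Compound tested in SelectScreen activity assays, Z'LYTE for CSF1R, CDK1/cyclin B and MAP2K6 and Adapta for CAMK1. ATP for CAMK1 was listed as 10, and Km app was used for CSF1R. Results are expressed in percent.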
# T1 sequence (Q9Y463 whole entry): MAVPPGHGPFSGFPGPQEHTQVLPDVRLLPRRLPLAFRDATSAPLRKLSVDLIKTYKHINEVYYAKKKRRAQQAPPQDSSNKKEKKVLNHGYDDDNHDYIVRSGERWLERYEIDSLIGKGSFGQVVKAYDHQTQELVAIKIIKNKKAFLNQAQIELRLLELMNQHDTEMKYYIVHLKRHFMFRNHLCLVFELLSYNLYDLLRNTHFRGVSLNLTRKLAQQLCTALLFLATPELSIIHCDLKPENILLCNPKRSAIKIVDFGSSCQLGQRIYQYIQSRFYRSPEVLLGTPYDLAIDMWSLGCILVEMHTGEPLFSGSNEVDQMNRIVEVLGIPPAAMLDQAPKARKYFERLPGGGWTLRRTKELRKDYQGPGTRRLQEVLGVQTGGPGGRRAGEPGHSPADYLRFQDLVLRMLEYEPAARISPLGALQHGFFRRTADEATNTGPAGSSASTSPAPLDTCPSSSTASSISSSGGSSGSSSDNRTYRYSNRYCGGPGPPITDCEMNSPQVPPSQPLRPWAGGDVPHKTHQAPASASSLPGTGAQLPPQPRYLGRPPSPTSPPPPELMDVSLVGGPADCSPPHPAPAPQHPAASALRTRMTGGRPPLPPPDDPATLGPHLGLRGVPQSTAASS
structure (smiles),measurement,value
CN(C(=O)CN1CCOCC1)c1ccc2sc3c(-c4cccc5c(=O)cc(N6CC7CCC(C6)O7)oc45)cccc3c2c1 [NU5455],inhibition at 1 µM,-1.8%
